According to patent US20130123481A1, “MODIFIED NUCLEOSIDES, NUCLEOTIDES, AND NUCLEIC ACIDS, AND USES THEREOF” (MODERNA THERAPEUTICS, priority 2011, published 2013):

Assays:
[1] = test system: human embryonic kidney 293 (HEK293) cells; assay: Toxicity of Nucleoside Triphosphates (NTPs), CYTO TOX-GLO assay; format: cell-based
Protocol: The cytotoxicity of natural and modified nucleoside triphosphates (NTPs) alone or in combination with other bases, was analyzed in human embryonic kidney 293 (HEK293) cells in the absence of transfection reagent. […] 10 ul of the NTPs outlined in Table 12 were combined with 10 ul of lipid dilution and incubated for 30 minutes to form a complex before 80 ul of the HEK293 cell suspension was added to the NTP complex. Natural and modified NTPs were transfected at a concentration of 2.1 nM, 21 nM, 210 nM, 2.1 um, 21 uM, 210 um or 2.1 mM. NTPs in combination were transfected at a total concentration of NTPs of 8.4 nM, 84 nM, 840 nM, 8.4 uM, 84 uM, 840 uM and 8.4 mM.

[2] = test system: peripheral blood mononuclear cells (PBMC); assay: In Vitro Screening in PBMC - G-CSF protein expression; format: cell-based, human; settings: 500 ng mRNA
Excerpt: The supernatant was harvested and stored frozen until analyzed by ELISA to determine the G-CSF protein expression, and the induction of the cytokines interferon-alpha (IFN-α) and tumor necrosis factor alpha (TNF-α).

[3] = PBMC Donor 1, 0.4 uL Lipofectamine 2000

Nc1nc2nc[nH]c2c(=O)[nH]1 [Guanine]
percent of viable cells ([1]; human, 4 h, 2.1 nM): 93.33%
percent of viable cells ([1]; human, 4 h, 21 nM): 92.84%
percent of viable cells ([1]; human, 4 h, 210 nM): 90.00%
percent of viable cells ([1]; human, 4 h, 2.1 uM): 90.60%
percent of viable cells ([1]; human, 4 h, 21 uM): 91.36%
percent of viable cells ([1]; human, 4 h, 210 uM): 90.14%
percent of viable cells ([1]; human, 4 h, 2.1 mM): 90.96%
percent of viable cells ([1]; human, 24 h, 2.1 nM): 85.41%
percent of viable cells ([1]; human, 24 h, 21 nM): 85.50%
percent of viable cells ([1]; human, 24 h, 210 nM): 86.35%
percent of viable cells ([1]; human, 24 h, 2.1 uM): 86.13%
percent of viable cells ([1]; human, 24 h, 21 uM): 85.93%
percent of viable cells ([1]; human, 24 h, 210 uM): 85.86%
percent of viable cells ([1]; human, 24 h, 2.1 mM): 86.37%
percent of viable cells ([1]; human, 48 h, 2.1 nM): 89.57%
percent of viable cells ([1]; human, 48 h, 21 nM): 87.92%
percent of viable cells ([1]; human, 48 h, 210 nM): 85.31%
percent of viable cells ([1]; human, 48 h, 2.1 uM): 87.89%
percent of viable cells ([1]; human, 48 h, 21 uM): 88.18%
percent of viable cells ([1]; human, 48 h, 210 uM): 87.05%
percent of viable cells ([1]; human, 48 h, 2.1 mM): 93.83%
percent of viable cells ([1]; human, 72 h, 2.1 nM): 93.72%
percent of viable cells ([1]; human, 72 h, 21 nM): 92.55%
percent of viable cells ([1]; human, 72 h, 210 nM): 92.19%
percent of viable cells ([1]; human, 72 h, 2.1 uM): 92.30%
percent of viable cells ([1]; human, 72 h, 21 uM): 92.39%
percent of viable cells ([1]; human, 72 h, 210 uM): 91.41%
percent of viable cells ([1]; human, 72 h, 2.1 mM): 97.04%

Cn1cc([C@@H]2O[C@H](CO)[C@@H](O)[C@H]2O)c(=O)[nH]c1=O [N1-methyl pseudouridine]
percent of viable cells ([1]; HEK293, individual NTP 2.1 nM, 4 hr): 91.89%
percent of viable cells ([1]; HEK293, individual NTP 2.1 nM, 24 hr): 87.79%
percent of viable cells ([1]; HEK293, individual NTP 2.1 nM, 48 hr): 87.81%
percent of viable cells ([1]; HEK293, individual NTP 2.1 nM, 72 hr): 92.98%
percent of viable cells ([1]; HEK293, individual NTP 21 nM, 4 hr): 91.44%
percent of viable cells ([1]; HEK293, individual NTP 21 nM, 24 hr): 86.85%
percent of viable cells ([1]; HEK293, individual NTP 21 nM, 48 hr): 86.72%
percent of viable cells ([1]; HEK293, individual NTP 21 nM, 72 hr): 92.84%
percent of viable cells ([1]; HEK293, individual NTP 210 nM, 4 hr): 92.15%
percent of viable cells ([1]; HEK293, individual NTP 210 nM, 24 hr): 85.89%
percent of viable cells ([1]; HEK293, individual NTP 210 nM, 48 hr): 87.38%
percent of viable cells ([1]; HEK293, individual NTP 210 nM, 72 hr): 92.40%
percent of viable cells ([1]; HEK293, individual NTP 2.1 uM, 4 hr): 90.41%
percent of viable cells ([1]; HEK293, individual NTP 2.1 uM, 24 hr): 85.72%
percent of viable cells ([1]; HEK293, individual NTP 2.1 uM, 48 hr): 85.85%
percent of viable cells ([1]; HEK293, individual NTP 2.1 uM, 72 hr): 92.25%
percent of viable cells ([1]; HEK293, individual NTP 21 uM, 4 hr): 91.48%
percent of viable cells ([1]; HEK293, individual NTP 21 uM, 24 hr): 85.17%
percent of viable cells ([1]; HEK293, individual NTP 21 uM, 48 hr): 87.52%
percent of viable cells ([1]; HEK293, individual NTP 21 uM, 72 hr): 93.83%
percent of viable cells ([1]; HEK293, individual NTP 210 uM, 4 hr): 91.43%
percent of viable cells ([1]; HEK293, individual NTP 210 uM, 24 hr): 86.48%
percent of viable cells ([1]; HEK293, individual NTP 210 uM, 48 hr): 86.02%
percent of viable cells ([1]; HEK293, individual NTP 210 uM, 72 hr): 93.03%
percent of viable cells ([1]; HEK293, individual NTP 2.1 mM, 4 hr): 92.45%
percent of viable cells ([1]; HEK293, individual NTP 2.1 mM, 24 hr): 88.92%
percent of viable cells ([1]; HEK293, individual NTP 2.1 mM, 48 hr): 89.84%
percent of viable cells ([1]; HEK293, individual NTP 2.1 mM, 72 hr): 96.80%

Cn1cnc2c(ncn2[C@@H]2O[C@H](CO)[C@@H](O)[C@H]2O)c1=N [N1-methyladenosine]
G-CSF Protein Expression [2, 3]: 182 pg/mL
G-CSF Protein Expression ([2]; PBMC Donor 2): 177 pg/mL
G-CSF Protein Expression ([2]; PBMC Donor 3): 191 pg/mL

CNc1ncnc2c1ncn2[C@@H]1O[C@H](CO)[C@@H](O)[C@H]1O [N6-methyladenosine]
G-CSF Protein Expression [2, 3]: 100 pg/mL
G-CSF Protein Expression ([2]; PBMC Donor 2): 168 pg/mL
G-CSF Protein Expression ([2]; PBMC Donor 3): 200 pg/mL

O=c1cc[nH]c(=O)[nH]1 [Uracil]
percent of viable cells ([1]; human, 4 h, 2.1 nM): 93.15%
percent of viable cells ([1]; human, 4 h, 21 nM): 92.90%
percent of viable cells ([1]; human, 4 h, 210 nM): 91.05%
percent of viable cells ([1]; human, 4 h, 2.1 uM): 90.90%
percent of viable cells ([1]; human, 4 h, 21 uM): 91.95%
percent of viable cells ([1]; human, 4 h, 210 uM): 89.60%
percent of viable cells ([1]; human, 4 h, 2.1 mM): 90.97%
percent of viable cells ([1]; human, 24 h, 2.1 nM): 87.63%
percent of viable cells ([1]; human, 24 h, 21 nM): 87.23%
percent of viable cells ([1]; human, 24 h, 210 nM): 86.52%
percent of viable cells ([1]; human, 24 h, 2.1 uM): 86.75%
percent of viable cells ([1]; human, 24 h, 21 uM): 85.89%
percent of viable cells ([1]; human, 24 h, 210 uM): 86.48%
percent of viable cells ([1]; human, 24 h, 2.1 mM): 87.68%
percent of viable cells ([1]; human, 48 h, 2.1 nM): 91.28%
percent of viable cells ([1]; human, 48 h, 21 nM): 88.89%
percent of viable cells ([1]; human, 48 h, 210 nM): 88.33%
percent of viable cells ([1]; human, 48 h, 2.1 uM): 89.44%
percent of viable cells ([1]; human, 48 h, 21 uM): 89.11%
percent of viable cells ([1]; human, 48 h, 210 uM): 88.98%
percent of viable cells ([1]; human, 48 h, 2.1 mM): 94.39%
percent of viable cells ([1]; human, 72 h, 2.1 nM): 95.51%
percent of viable cells ([1]; human, 72 h, 21 nM): 94.53%
percent of viable cells ([1]; human, 72 h, 210 nM): 94.50%
percent of viable cells ([1]; human, 72 h, 2.1 uM): 94.60%
percent of viable cells ([1]; human, 72 h, 21 uM): 93.63%
percent of viable cells ([1]; human, 72 h, 210 uM): 93.45%
percent of viable cells ([1]; human, 72 h, 2.1 mM): 96.82%
